{
  "source": "patent US11987576B2",
  "about": "“Compositions and methods for decreasing, or preventing or reversing gain of, skin pigmentation in a mammalian subject” (THE TRUSTEES OF THE UNIVERSITY OF PENNSYLVANIA, priority 2015, dated 2024)",
  "key": {"3-D organotypic skin [1]": {"test_system": "3-D organotypic skin", "experiment": "Fontana-Masson melanin staining of 3-D organotypic skin", "format": "cell-based, human", "settings": "vs vehicle"}, "PR": {"biological_target": "T1, PR (Homo sapiens, UniProt P06401)", "T1 sequence (P06401 1-933)": "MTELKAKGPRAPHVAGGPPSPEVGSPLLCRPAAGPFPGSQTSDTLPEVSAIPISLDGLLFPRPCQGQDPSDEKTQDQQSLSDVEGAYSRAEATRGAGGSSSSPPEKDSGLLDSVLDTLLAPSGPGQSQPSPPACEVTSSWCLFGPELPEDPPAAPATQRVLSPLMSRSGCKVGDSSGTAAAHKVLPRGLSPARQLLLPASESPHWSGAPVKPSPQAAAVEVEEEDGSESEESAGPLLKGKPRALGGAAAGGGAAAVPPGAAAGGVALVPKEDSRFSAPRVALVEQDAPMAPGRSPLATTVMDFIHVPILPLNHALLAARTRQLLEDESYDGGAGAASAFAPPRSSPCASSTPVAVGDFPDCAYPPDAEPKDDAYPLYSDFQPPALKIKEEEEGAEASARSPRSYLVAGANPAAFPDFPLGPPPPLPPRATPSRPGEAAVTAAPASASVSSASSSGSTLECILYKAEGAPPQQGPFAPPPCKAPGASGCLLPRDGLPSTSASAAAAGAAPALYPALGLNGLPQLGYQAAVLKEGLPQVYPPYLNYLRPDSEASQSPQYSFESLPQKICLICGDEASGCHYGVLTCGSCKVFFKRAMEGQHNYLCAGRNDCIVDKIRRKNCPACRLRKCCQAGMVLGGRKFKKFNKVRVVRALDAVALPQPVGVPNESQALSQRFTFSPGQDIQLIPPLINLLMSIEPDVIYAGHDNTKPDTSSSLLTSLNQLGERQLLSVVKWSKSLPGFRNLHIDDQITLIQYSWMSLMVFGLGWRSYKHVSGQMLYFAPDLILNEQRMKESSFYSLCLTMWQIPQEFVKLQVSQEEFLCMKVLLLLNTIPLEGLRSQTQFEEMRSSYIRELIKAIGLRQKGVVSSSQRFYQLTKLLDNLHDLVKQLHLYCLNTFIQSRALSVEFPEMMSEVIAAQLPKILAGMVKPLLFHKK", "settings": "cited from earlier work"}, "ER": {"test_system": "ER", "settings": "cited from earlier work"}, "3-D organotypic skin [2]": {"test_system": "3-D organotypic skin", "experiment": "MITF immunohistochemistry of organotypic skin (melanocyte population density)", "format": "cell-based, human", "settings": "vs vehicle", "excerpt": "Formalin fixed paraffin embedded (FFPE) human skin tissue sections from organotypic tissue was stained for MITF protein expression using a primary antibody to MITF (Leica Biosystems, NCL-L-MITF, 1:15)."}, "cAMP": {"test_system": "cAMP", "experiment": "cAMP ELISA on primary human melanocytes", "format": "cell-based", "protocol": "cAMP ELISA was performed on primary human melanocytes using the Cyclic AMP XP Assay Kit (Cell Signaling Technology, #4339) following manufacturer instructions."}, "pCREB and MITF": {"test_system": "pCREB and MITF", "experiment": "Western blot of classical melanin pathway regulators in melanocytes", "format": "cell-based, human", "settings": "1 μM overnight", "protocol": "Adherent cells were treated with 1 μM doses of E2 and P4 overnight, washed once with DPBS, and lysed with 1% NP-40 buffer (150 mM NaCl, 50 mM Tris, pH 7.5, 1 mM EDTA, and 1% NP-40) containing 1× protease inhibitors (Roche) and 1× phosphatase inhibitors (Roche). Lysates were quantified (Bradford assay), normalized, reduced, denatured (95° C.) and resolved by SDS gel electrophoresis on 4-15% Tris/Glycine gels (Bio-Rad). Resolved protein was transferred to PVDF membranes (Millipore) using a Semi-Dry Transfer Cell (Bio-Rad), blocked in 5% dry milk in TBS-T and probed with primary antibodies recognizing MITF (Cell Signaling Technology, #12590, 1:1000), pCREB (Cell Signaling Technology, #9198, 1:1000), CREB (Cell Signaling Technology, #9104, 1:1000), and β-Actin (Cell Signaling Technology, #3700, 1:4000). After incubation with the appropriate secondary antibody, proteins were detected using either Luminata Crescendo Western HRP Substrate (Millipore) or ECL Western Blotting Analysis System (GE Healthcare)."}},
  "data": [
    {"smiles": "C=C[C@]12CCC(=O)C=C1CC[C@H]1[C@@H]3CC[C@H](C(C)=O)[C@@]3(C)CC[C@@H]12", "note": "(relative stereo) [CH2P4, rel-(8S,9S,10S,13 S,14S,17S)-17-acetyl-13-methyl-10-vinyl-6,7,8,9,10,11,12,13,14,15,16,17-dodecahydro-1H-cyclopenta[a]phenanthren-3 (2H)-one]", "values": [
      {"measurement": "melanin production in skin tissue", "setting": "3-D organotypic skin [1]", "value": "decrease in melanin production"},
      {"measurement": "binding to PR", "setting": "PR", "value": "does not bind"}
    ]},
    {"smiles": "Brc1cc2c(cc1[C@H]1Nc3ccccc3[C@@H]3C=CC[C@H]13)OCO2", "note": "(relative stereo) [G-15, rel-(3aS,4S,9bR)-4-(6-bromobenzo[d][1,3]dioxol-5-yl)-3a,4,5,9b-tetrahydro-3H-cyclopenta[c]quinoline]", "values": [
      {"measurement": "inhibitory activity against ER", "setting": "ER", "value": "do not have inhibitory activity"}
    ]},
    {"smiles": "CC(=O)[C@H]1CC[C@H]2[C@@H]3CCC4=CC(=O)CC[C@]4(C)[C@H]3CC[C@]12C", "note": "[progesterone]", "values": [
      {"measurement": "melanin production in skin tissue", "setting": "3-D organotypic skin [1]", "value": "decreased melanin production by nearly half"},
      {"measurement": "total melanocyte number or density", "setting": "3-D organotypic skin [2]", "value": "without affecting overall melanocyte cell number"},
      {"measurement": "cAMP", "setting": "cAMP", "value": "decreases"},
      {"measurement": "MITF protein", "setting": "pCREB and MITF", "value": "decreases"},
      {"measurement": "pCREB protein", "setting": "pCREB and MITF", "value": "decreases"}
    ]}
  ]
}
